Results as given in article PMC10964431 (European journal of medicinal chemistry, 2024).

What was measured:
Assay in all cases: Anti-SARS-CoV-2 activity against VOCs, WST-8 assay in VeroE6 cells
Assay type in all cases: cell-based
Conditions in all cases: one range stated for beta, gamma and omicron
[1] = test system: SARS-CoV-2^TY8 (Beta)
[2] = test system: SARS-CoV-2^TY7 (Gamma)
[3] = test system: SARS-CoV-2^929 (Omicron)

CC(C)(C)[C@H](NC(=O)C(Cl)(Cl)Cl)C(=O)N1C[C@H]2[C@@H]([C@H]1C(=O)N[C@H](C#N)C[C@@H]1CCCNC1=O)C2(C)C [Compound 5f, (1R,2S,5S)-N-((S)-1-Cyano-2-((S)-2-oxopiperidin-3-yl)ethyl)-3-((S)-3,3-dimethyl-2-(2,2,2-trichloroacetamido)butanoyl)-6,6-dimethyl-3-azabicyclo[3.1.0]hexane-2-carboxamide]
3–5 fold: loss of antiviral activity against beta variant [1] | loss of antiviral activity against gamma variant [2] | loss of antiviral activity against omicron variant [3]
